Results from US20140274688A1, “MOLECULES HAVING CERTAIN PESTICIDAL UTILITIES, AND INTERMEDIATES, COMPOSITIONS, AND PROCESSES RELATED THERETO” (DOW AGROSCIENCES LLC, priority 2013, published 2014).

Legend:
[1] = tested on: Cabbage Looper (Trichoplusia ni) ("CL"); assay: Bioassay on Cabbage Looper (CL), 128-well diet tray assay, percent mortality; format: in vivo; settings: Trichoplusia ni, read-out: CL
Excerpt: (§1) Bioassays on Beet Armyworm (Spodoptera exigua) (“BAW”) and Cabbage Looper (Trichoplusia ni) (“CL”)
(§2) BAW has few effective parasites, diseases, or predators to lower its population. BAW infests many weeds, trees, grasses, legumes, and field crops. In various places, it is of economic concern upon asparagus, cotton, corn, soybeans, tobacco, alfalfa, sugar beets, peppers, tomatoes, potatoes, onions, peas, sunflowers, and citrus, among other plants. The Cabbage Looper is a member of the moth family Noctuidae. It is found throughout the world. It is attacks cabbage, cauliflower, broccoli, Brussel sprouts, tomatoes, cucumbers, potatoes, kale, turnips, mustard, peppers, eggplant, watermelons, melons, squash, cantaloupe, peas, beans, collards, lettuce, spinach, celery, parsley, beets, peas, alfalfa, soybeans, and cotton. This species is very destructive to plants due to its voracious consumption of leaves. In the case of cabbage, however, they feed not only on the wrapper leaves, but also may bore into the developing head. The larvae consume three times their weight in plant material daily. The feeding sites are marked by large accumulations of sticky, wet fecal material.
(§3) Consequently, because of the above factors control of these pests is important.
(§4) Certain molecules disclosed in this document were tested against BAW and CEW using procedures described in the following examples. In the reporting of the results, the “BAW & CL Rating Table” was used (See Table Section).
Bioassays on Cabbage Looper in CL
(§5) Trays were covered with a clear self-adhesive cover and held at 25° C., 14:10 light-dark for five to seven days. Percent mortality was recorded for the larvae in each well; activity in the eight wells was then averaged. The results are indicated in the table entitled “Table ABC: Biological Results” (See Table Section).

[2] = tested on: Beet Armyworm (Spodoptera exigua) ("BAW"); assay: Bioassay on Beet Armyworm (BAW), 128-well diet tray assay, percent mortality; format: in vivo; settings: Spodoptera exigua, read-out: BAW
Excerpt: as §1, §2, §3, §4, §5

Structure (SMILES)	pest or weed control at 50 µg/cm2 [1] [%]	pest or weed control at 50 µg/cm2 [2] [%]
CC(C)c1ccccc1N1C(=O)CS/C1=N\C(=O)NCCc1cccc(-c2ncn(-c3ccc(OC(F)(F)F)cc3)n2)c1 [P76, (Z)-1-(3-(2-isopropylphenyl)-4-oxothiazolidin-2-ylidene)-3-(3-(1-(4-(trifluoromethoxy)phenyl)-1H-1,2,4-triazol-3-yl)phenethyl)urea]	50 to 100	50 to 100
CCCc1ccc(C)cc1N1C(=O)CS/C1=N\C(=O)NCCc1cccc(-c2ncn(-c3ccc(OC(F)(F)F)cc3)n2)c1 [P80, (Z)-1-(3-(5-methyl-2-propylphenyl)-4-oxothiazolidin-2-ylidene)-3-(3-(1-(4-(trifluoromethoxy)phenyl)-1H-1,2,4-triazol-3-yl)phenethyl)urea]	50 to 100	50 to 100
CCc1cccc(C)c1N1C(=O)CS/C1=N\C(=O)NCCc1cccc(-c2ncn(-c3ccc(OC(F)(F)F)cc3)n2)c1 [P83, (Z)-1-(3-(2-ethyl-6-methylphenyl)-4-oxothiazolidin-2-ylidene)-3-(3-(1-(4-(trifluoromethoxy)phenyl)-1H-1,2,4-triazol-3-yl)phenethyl)urea]	50 to 100	50 to 100
Cc1ccc(N2C(=O)CS/C2=N\C(=O)NCCc2cccc(-c3ncn(-c4ccc(OC(F)(F)F)cc4)n3)c2)c(C(C)C)c1 [P84, (Z)-1-(3-(2-isopropyl-4-methylphenyl)-4-oxothiazolidin-2-ylidene)-3-(3-(1-(4-(trifluoromethoxy)phenyl)-1H-1,2,4-triazol-3-yl)phenethyl)urea]	50 to 100	50 to 100
CC(C)c1cc(F)ccc1N1C(=O)CS/C1=N\C(=O)NCCc1cccc(-c2ncn(-c3ccc(OC(F)(F)F)cc3)n2)c1 [P85, (Z)-1-(3-(4-fluoro-2-isopropylphenyl)-4-oxothiazolidin-2-ylidene)-3-(3-(1-(4-(trifluoromethoxy)phenyl)-1H-1,2,4-triazol-3-yl)phenethyl)urea]	50 to 100	50 to 100
COc1ccc(N2C(=O)CS/C2=N\C(=O)NCCc2cccc(-c3ncn(-c4ccc(OC(F)(F)F)cc4)n3)c2)c(C)c1 [P87, (Z)-1-(3-(4-methoxy-2-methylphenyl)-4-oxothiazolidin-2-ylidene)-3-(3-(1-(4-(trifluoromethoxy)phenyl)-1H-1,2,4-triazol-3-yl)phenethyl)urea]	50 to 100	50 to 100
Cc1ccccc1N1C(=O)CS/C1=N\C(=O)NCCCc1ccc(-c2ncn(-c3ccc(OC(F)(F)F)cc3)n2)cc1 [P92, (Z)-1-(4-oxo-3-(o-tolyl)thiazolidin-2-ylidene)-3-(3-(4-(1-(4-(trifluoromethoxy)phenyl)-1H-1,2,4-triazol-3-yl)phenyl)propyl)urea]	50 to 100	50 to 100
CCc1ccccc1N1C(=O)CS/C1=N\C(=O)NCCCc1ccc(-c2ncn(-c3ccc(OC(F)(F)F)cc3)n2)cc1 [P93, (Z)-1-(3-(2-ethylphenyl)-4-oxothiazolidin-2-ylidene)-3-(3-(4-(1-(4-(trifluoromethoxy)phenyl)-1H-1,2,4-triazol-3-yl)phenyl)propyl)urea]	50 to 100	50 to 100
CC(C)c1ccccc1N1C(=O)CS/C1=N\C(=O)NCCCc1ccc(-c2ncn(-c3ccc(OC(F)(F)F)cc3)n2)cc1 [P94, (Z)-1-(3-(2-isopropylphenyl)-4-oxothiazolidin-2-ylidene)-3-(3-(4-(1-(4-(trifluoromethoxy)phenyl)-1H-1,2,4-triazol-3-yl)phenyl)propyl)urea]	50 to 100	50 to 100
CCCc1ccc(C)cc1N1C(=O)CS/C1=N\C(=O)NCCCc1ccc(-c2ncn(-c3ccc(OC(F)(F)F)cc3)n2)cc1 [P99, (Z)-1-(3-(5-methyl-2-propylphenyl)-4-oxothiazolidin-2-ylidene)-3-(3-(4-(1-(4-(trifluoromethoxy)phenyl)-1H-1,2,4-triazol-3-yl)phenyl)propyl)urea]	50 to 100	50 to 100
CCc1cccc(C)c1N1C(=O)CS/C1=N\C(=O)NCCCc1ccc(-c2ncn(-c3ccc(OC(F)(F)F)cc3)n2)cc1 [P101, (Z)-1-(3-(2-ethyl-6-methylphenyl)-4-oxothiazolidin-2-ylidene)-3-(3-(4-(1-(4-(trifluoromethoxy)phenyl)-1H-1,2,4-triazol-3-yl)phenyl)propyl)urea]	50 to 100	0 to 50
Cc1ccc(N2C(=O)CS/C2=N\C(=O)NCCCc2ccc(-c3ncn(-c4ccc(OC(F)(F)F)cc4)n3)cc2)c(C(C)C)c1 [P102, (Z)-1-(3-(2-isopropyl-4-methylphenyl)-4-oxothiazolidin-2-ylidene)-3-(3-(4-(1-(4-(trifluoromethoxy)phenyl)-1H-1,2,4-triazol-3-yl)phenyl)propyl)urea]	50 to 100	50 to 100
CC(C)c1cc(F)ccc1N1C(=O)CS/C1=N\C(=O)NCCCc1ccc(-c2ncn(-c3ccc(OC(F)(F)F)cc3)n2)cc1 [P103, (Z)-1-(3-(4-fluoro-2-isopropylphenyl)-4-oxothiazolidin-2-ylidene)-3-(3-(4-(1-(4-(trifluoromethoxy)phenyl)-1H-1,2,4-triazol-3-yl)phenyl)propyl)urea]	50 to 100	50 to 100
COc1ccc(N2C(=O)CS/C2=N\C(=O)NCCCc2ccc(-c3ncn(-c4ccc(OC(F)(F)F)cc4)n3)cc2)c(C)c1 [P105, (Z)-1-(3-(4-methoxy-2-methylphenyl)-4-oxothiazolidin-2-ylidene)-3-(3-(4-(1-(4-(trifluoromethoxy)phenyl)-1H-1,2,4-triazol-3-yl)phenyl)propyl)urea]	50 to 100	50 to 100
Cc1ccccc1N1C(=O)CS/C1=N\C(=O)NCCCc1cccc(-c2ncn(-c3ccc(OC(F)(F)F)cc3)n2)c1 [P118, (Z)-1-(4-oxo-3-(o-tolyl)thiazolidin-2-ylidene)-3-(3-(3-(1-(4-(trifluoromethoxy)phenyl)-1H-1,2,4-triazol-3-yl)phenyl)propyl)urea]	50 to 100	50 to 100
CCc1ccccc1N1C(=O)CS/C1=N\C(=O)NCCCc1cccc(-c2ncn(-c3ccc(OC(F)(F)F)cc3)n2)c1 [P119, (Z)-1-(3-(2-ethylphenyl)-4-oxothiazolidin-2-ylidene)-3-(3-(3-(1-(4-(trifluoromethoxy)phenyl)-1H-1,2,4-triazol-3-yl)phenyl)propyl)urea]	50 to 100	50 to 100
CC(C)c1ccccc1N1C(=O)CS/C1=N\C(=O)NCCCc1cccc(-c2ncn(-c3ccc(OC(F)(F)F)cc3)n2)c1 [P120, (Z)-1-(3-(2-isopropylphenyl)-4-oxothiazolidin-2-ylidene)-3-(3-(3-(1-(4-(trifluoromethoxy)phenyl)-1H-1,2,4-triazol-3-yl)phenyl)propyl)urea]	50 to 100	50 to 100
Cc1ccc(C(C)C)c(N2C(=O)CS/C2=N\C(=O)NCCCc2cccc(-c3ncn(-c4ccc(OC(F)(F)F)cc4)n3)c2)c1 [P124, (Z)-1-(3-(2-isopropyl-5-methylphenyl)-4-oxothiazolidin-2-ylidene)-3-(3-(3-(1-(4-(trifluoromethoxy)phenyl)-1H-1,2,4-triazol-3-yl)phenyl)propyl)urea]	50 to 100	50 to 100
CCCc1ccc(C)cc1N1C(=O)CS/C1=N\C(=O)NCCCc1cccc(-c2ncn(-c3ccc(OC(F)(F)F)cc3)n2)c1 [P125, (Z)-1-(3-(5-methyl-2-propylphenyl)-4-oxothiazolidin-2-ylidene)-3-(3-(3-(1-(4-(trifluoromethoxy)phenyl)-1H-1,2,4-triazol-3-yl)phenyl)propyl)urea]	50 to 100	50 to 100
CCc1cccc(C)c1N1C(=O)CS/C1=N\C(=O)NCCCc1cccc(-c2ncn(-c3ccc(OC(F)(F)F)cc3)n2)c1 [P127, (Z)-1-(3-(2-ethyl-6-methylphenyl)-4-oxothiazolidin-2-ylidene)-3-(3-(3-(1-(4-(trifluoromethoxy)phenyl)-1H-1,2,4-triazol-3-yl)phenyl)propyl)urea]	50 to 100	50 to 100
Cc1ccc(N2C(=O)CS/C2=N\C(=O)NCCCc2cccc(-c3ncn(-c4ccc(OC(F)(F)F)cc4)n3)c2)c(C(C)C)c1 [P128, (Z)-1-(3-(2-isopropyl-4-methylphenyl)-4-oxothiazolidin-2-ylidene)-3-(3-(3-(1-(4-(trifluoromethoxy)phenyl)-1H-1,2,4-triazol-3-yl)phenyl)propyl)urea]	50 to 100	50 to 100
CC(C)c1cc(F)ccc1N1C(=O)CS/C1=N\C(=O)NCCCc1cccc(-c2ncn(-c3ccc(OC(F)(F)F)cc3)n2)c1 [P129, (Z)-1-(3-(4-fluoro-2-isopropylphenyl)-4-oxothiazolidin-2-ylidene)-3-(3-(3-(1-(4-(trifluoromethoxy)phenyl)-1H-1,2,4-triazol-3-yl)phenyl)propyl)urea]	50 to 100	50 to 100
